Earlier results on one molecule are cited in patent US20230139888A1, “MOISTURIZING PEEL CREAM FOR ENHANCING SKIN” (L'OREAL, priority 2021, published 2023).

SMILES strings stand for the structures.

The conditions of this series: acute oral toxicity, mutagenicity, skin irritation, skin sensitization, phototoxicity.

As for `CC(c1ccccc1)c1ccc(O)cc1O` (stereo not shown) [Phenylethyl resorcinol], the “adverse effects in basic toxicological tests” value was “has not shown adverse effects”.
